Numbered stars: 1 amine (or outer) side, 2 acyl side, 3 side chain; on linkers, the order of the positions; unused ones are H or OH. Square brackets hold non-standard residues; d marks the D form. Ends that are not written are not given here. Peptide text beside a SMILES is read from it. * marks the point of attachment. Sni = (S)-nipecotic acid, O=C([C@H]1CCCN([*:1])C1)[*:2]; X16 = CCN[C@@H]1C[C@@H](C(=O)[*:2])N([*:1])C1; Phe(4-Me) = Cc1ccc(C[C@H](N)C(=O)O)cc1; Pro(4R-NH2) = N[C@H]1CN[C@H](C(=O)O)C1; dLys(Me2) = CN(C)CCCC[C@@H](N)C(=O)O; dOrn(Me2) = CN(C)CCC[C@@H](N)C(=O)O; X2 = O=C([C@H]1CCCN([*:1])C1)[*:2]; X1 = CCCCCCCCN1CCC[C@H](C(=O)*)C1; dDap(Me2) = CN(C)C[C@@H](N)C(=O)O; Hyp = O=C(O)[C@@H]1C[C@@H](O)CN1; NHcycloheptyl = C1CCCC(N*)CC1; NMeL = CN[C@@H](CC(C)C)C(=O)O; Octanoyl = CCCCCCCC(=O)*; Occ = octanoic acid
How the values were obtained:
rabbit eyes = assay: Efficacy in the rabbit: intraocular pressure (IOP) after a single topical ocular drop; format: in vivo; settings: dose 300 ug topical ocular, single 30 μL drop, up to 4 hr post dose, 1% as suspension (+) or solution (++) per mark on label
Description: A single 30 μL drop of a test item formulation was administered to rabbit eyes (n=8 to 10).
Intraocular pressure (IOP) was assessed in each eye at 0 hr, just prior to dosing, and again hourly for up to 4 hr post dose. The efficacy of a given formulation was determined based on the difference between the pretreatment TOP readings at 0 hr and the post treatment readings. A maximum percent reduction in IOP greater than 15% was noted by the “+” symbol. A maximum IOP reduction of less than 15% was assigned the “−” symbol.

NPR-B = target: T1, NPR-B (Homo sapiens, UniProt P20594); assay: NPR-B induced production of cyclic GMP in human glaucoma trabecular meshwork cells (GTM-3); format: cell-based; settings: group by EC50 and Emax (CNP = 100%); Table 4; read-out: Activity (group), NPR-B activation assayed with GTM-3 cells
T1 construct: a functional assay using endogenously NPR-B expressing GTM-3 cells; endogenous in cells; host or cells: GTM-3 (human glaucoma trabecular meshwork cells)
T1 sequence (P20594 23-1047): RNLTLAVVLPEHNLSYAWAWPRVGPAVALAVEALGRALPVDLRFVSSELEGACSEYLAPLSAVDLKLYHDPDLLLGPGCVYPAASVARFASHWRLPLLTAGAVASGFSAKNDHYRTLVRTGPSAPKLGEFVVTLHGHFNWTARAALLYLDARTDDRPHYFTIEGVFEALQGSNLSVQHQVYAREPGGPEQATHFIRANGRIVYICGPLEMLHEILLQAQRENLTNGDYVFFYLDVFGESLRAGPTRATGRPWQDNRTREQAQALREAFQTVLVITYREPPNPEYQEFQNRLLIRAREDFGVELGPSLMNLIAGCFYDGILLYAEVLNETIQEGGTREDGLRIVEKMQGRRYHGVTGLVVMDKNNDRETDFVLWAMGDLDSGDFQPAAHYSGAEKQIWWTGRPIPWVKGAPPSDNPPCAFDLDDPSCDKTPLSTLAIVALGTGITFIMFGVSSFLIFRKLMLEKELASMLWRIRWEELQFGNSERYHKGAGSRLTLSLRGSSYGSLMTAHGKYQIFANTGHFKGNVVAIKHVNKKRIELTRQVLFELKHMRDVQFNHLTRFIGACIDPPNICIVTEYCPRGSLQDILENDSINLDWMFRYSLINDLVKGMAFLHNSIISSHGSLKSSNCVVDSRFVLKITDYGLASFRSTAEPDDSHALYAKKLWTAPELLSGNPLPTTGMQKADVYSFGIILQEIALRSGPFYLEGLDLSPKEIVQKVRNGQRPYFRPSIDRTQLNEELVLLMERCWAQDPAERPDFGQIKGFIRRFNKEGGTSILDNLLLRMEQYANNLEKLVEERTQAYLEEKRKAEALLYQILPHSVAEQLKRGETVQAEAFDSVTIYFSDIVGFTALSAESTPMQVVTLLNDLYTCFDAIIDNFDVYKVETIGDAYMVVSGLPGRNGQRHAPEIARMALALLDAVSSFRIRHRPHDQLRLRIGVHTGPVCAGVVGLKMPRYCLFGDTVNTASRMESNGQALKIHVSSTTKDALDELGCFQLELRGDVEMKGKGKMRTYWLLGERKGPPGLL

| EC50 (NPR-B) | Compound | RIOP, maximum percent reduction in IOP (rabbit eyes) |
| --- | --- | --- |
| < 1000 nM | CCCCCCCC(=O)N1CCC[C@H](C(=O)N[C@@H](Cc2ccccc2)C(=O)N[C@H](CC(C)C)C(=O)N[C@@H](CC(C)C)C(=O)N2C[C@H](O)C[C@H]2C(=O)N(C)[C@@H](CC(C)C)C(=O)N[C@H](C(=O)N[C@@H](CCCNC(=N)N)C(=O)NC2CCCCCC2)C(C)C)C1 [JAL-1730, Occ-Sni-Phe-leu-Leu-Hyp-Nml-Val-Arg-Che] (Octanoyl-[X2]F[dL]L[Hyp][NMeL]VR-NHcycloheptyl) | + (+ IOP reduction >15%) |
|  | Occ-Sni-Phe-dap(Me2)-Leu-Hyp-Nml-Val-Arg-Ile-NH2 ([Occ][Sni]FXL[Hyp][NMeL]VRI-NH2; not fully specified (residue 4); printed as Occ-Sni-Phe-dap(Me2)-Leu-Hyp-Nml-Val-Arg-Ile-NH2) [JAL-1400] | + (+ IOP reduction >15%) |
| < 1000 nM | CCCCCCCC(=O)N1CCC[C@H](C(=O)N[C@@H](Cc2ccccc2)C(=O)N[C@H](CC(C)C)C(=O)N[C@@H](CC(C)C)C(=O)N2C[C@H](N)C[C@H]2C(=O)N(C)[C@@H](CC(C)C)C(=O)N[C@@H](CC(=O)O)C(=O)N[C@@H](CCCNC(=N)N)C(=O)N[C@H](C(N)=O)[C@@H](C)CC)C1 [JAL-1295, Occ-Sni-Phe-leu-Leu-Tap-Nml-Asp-Arg-Ile-NH2] (Octanoyl-[X2]F[dL]L[Pro(4R-NH2)][NMeL]DRI-NH2) | + (+ IOP reduction >15%) |
| < 1000 nM | CCCCCCCC(=O)N[C@H](C)C(=O)N[C@@H](Cc1ccccc1)C(=O)N[C@H](CC(C)C)C(=O)N[C@@H](CC(C)C)C(=O)N1C[C@H](O)C[C@H]1C(=O)N(C)[C@@H](CC(C)C)C(=O)N[C@@H](CC(=O)O)C(=O)N[C@@H](CCCNC(=N)N)C(=O)N[C@H](C(N)=O)[C@@H](C)CC [JAL-1042, Occ-ala-Phe-leu-Leu-Hyp-Nml-Asp-Arg-Ile-NH2] (HELM PEPTIDE1{[CCCCCCCC(=O)[*:2]].[dA].F.[dL].L.[Hyp].[meL].D.R.I.[am]}$$$$V2.0) | − (− IOP reduction <15%) |
| < 1000 nM | CCCCCCCC(=O)N1CCC[C@H](C(=O)N[C@@H](Cc2ccccc2)C(=O)N[C@H](CCCN(C)C)C(=O)N[C@@H](CC(C)C)C(=O)N2C[C@H](O)C[C@H]2C(=O)N(C)[C@@H](CC(C)C)C(=O)N[C@@H](CC(=O)O)C(=O)N[C@@H](CCCNC(=N)N)C(=O)N[C@H](C(N)=O)[C@@H](C)CC)C1 [JAL-1289, Occ-Sni-Phe-orn(Me2)-Leu-Hyp-Nml-Asp-Arg-Ile-NH2] (Octanoyl-[X2]F[dOrn(Me2)]L[Hyp][NMeL]DRI-NH2) | + (+ IOP reduction >15%) |
|  | CCCCCCCCN1CCC[C@H](C(=O)N[C@@H](Cc2ccccc2)C(=O)N[C@H](CN(C)C)C(=O)N[C@@H](CC(C)C)C(=O)N2C[C@H](O)C[C@H]2C(=O)N(C)[C@@H](CC(C)C)C(=O)N[C@@H](CC(=O)O)C(=O)N[C@@H](CCCNC(=N)N)C(=O)N[C@H](C(N)=O)[C@@H](C)CC)C1 [JAL-1429, Oct-Sni-Phe-dap(Me2)-Leu-Hyp-Nml-Asp-Arg-Ile-NH2] (HELM PEPTIDE1{[CCCCCCCCN1CCC[C@H](C(=O)[*:2])C1].F.[CN(C)C[C@@H](N[*:1])C(=O)[*:2]].L.[Hyp].[meL].D.R.I.[am]}$$$$V2.0) | + (+ IOP reduction >15%) |
|  | CCCCCCCCN1CCC[C@H](C(=O)N[C@@H](Cc2ccccc2)C(=O)N[C@H](CN(C)C)C(=O)N[C@@H](CC(C)C)C(=O)N2C[C@H](N)C[C@H]2C(=O)N(C)[C@@H](CC(C)C)C(=O)N[C@@H](CC(=O)O)C(=O)N[C@@H](CCCNC(=N)N)C(=O)N[C@H](C(N)=O)[C@@H](C)CC)C1 [JAL-1369, Oct-Sni-Phe-dap(Me2)-Leu-Tap-Nml-Asp-Arg-Ile-NH2] (X1-F[dDap(Me2)]L[Pro(4R-NH2)][NMeL]DRI-NH2) | + (+ IOP reduction >15%) |
| < 1000 nM | CCCCCCCC(=O)N1CCC[C@H](C(=O)N[C@@H](Cc2ccccc2)C(=O)N[C@H](CCCCN(C)C)C(=O)N[C@@H](CC(C)C)C(=O)N2C[C@H](O)C[C@H]2C(=O)N(C)[C@@H](CC(C)C)C(=O)N[C@@H](CC(=O)O)C(=O)N[C@@H](CCCNC(=N)N)C(=O)NC2CCCCCC2)C1 [JAL-1777, Occ-Sni-Phe-lys(Me2)-Leu-Hyp-Nml-Asp-Arg-Che] (Octanoyl-[X2]F[dLys(Me2)]L[Hyp][NMeL]DR-NHcycloheptyl) |  |
| < 1000 nM | CCCCCCCC(=O)N[C@H](C)C(=O)N[C@@H](Cc1ccccc1)C(=O)N[C@H](CO)C(=O)N[C@@H](CC(C)C)C(=O)N1C[C@H](O)C[C@H]1C(=O)N(C)[C@@H](CC(C)C)C(=O)N[C@@H](CC(=O)O)C(=O)N[C@@H](CCCNC(=N)N)C(=O)N[C@H](C(N)=O)[C@@H](C)CC [JAL-1252, Occ-ala-Phe-ser-Leu-Hyp-Nml-Asp-Arg-Ile-NH2] (HELM PEPTIDE1{[CCCCCCCC(=O)[*:2]].[dA].F.[dS].L.[Hyp].[meL].D.R.I.[am]}$$$$V2.0) |  |
| < 1000 nM | CCCCCCCC(=O)N1CCC[C@H](C(=O)N[C@@H](Cc2ccccc2)C(=O)N[C@H](CC(C)C)C(=O)N[C@@H](CC(C)C)C(=O)N2C[C@H](NCC)C[C@H]2C(=O)N(C)[C@@H](CC(C)C)C(=O)N[C@@H](CC(=O)O)C(=O)N[C@@H](CCCNC(=N)N)C(=O)N[C@H](C(N)=O)[C@@H](C)CC)C1 [JAL-1349, Occ-Sni-Phe-leu-Leu-Tap(Et)-Nml-Asp-Arg-Ile-NH2] (Octanoyl-[X2]F[dL]L[X16][NMeL]DRI-NH2) |  |
| < 1000 nM | CCCCCCCC(=O)N1CCC[C@H](C(=O)N[C@@H](Cc2ccc(C)cc2)C(=O)N[C@H](CC(C)C)C(=O)N[C@@H](CC(C)C)C(=O)N2C[C@H](O)C[C@H]2C(=O)N(C)[C@@H](CC(C)C)C(=O)N[C@@H](CC(=O)O)C(=O)N[C@@H](CCCNC(=N)N)C(=O)N[C@H](C(N)=O)[C@@H](C)CC)C1 [JAL-1494, Occ-Sni-Pmf-leu-Leu-Hyp-Nml-Asp-Arg-Ile-NH2] (Octanoyl-[X2][Phe(4-Me)][dL]L[Hyp][NMeL]DRI-NH2) |  |
| < 1000 nM | CCCCCCCC(=O)N[C@H](C)C(=O)N[C@@H](Cc1ccccc1)C(=O)N[C@H](CCCNC(=N)N)C(=O)N[C@@H](CC(C)C)C(=O)N1C[C@H](O)C[C@H]1C(=O)N(C)C(CC(C)(C)C)C(=O)N[C@@H](CC(=O)O)C(=O)N[C@@H](CCCNC(=N)N)C(=O)N[C@H](C(N)=O)[C@@H](C)CC (stereo partly drawn) [JAL-1284, Occ-ala-Phe-arg-Leu-Hyp-(SH-158)-Asp-Arg-Ile-NH2] (HELM PEPTIDE1{[CCCCCCCC(=O)[*:2]].[dA].F.[dR].L.[Hyp].[CN(C(CC(C)(C)C)C(=O)[*:2])[*:1]].D.R.I.[am]}$$$$V2.0) |  |
| < 1000 nM | CCCCCCCC(=O)N1CCCC2(CCN(C(Cc3ccccc3)C(=O)N[C@H](CC(C)C)C(=O)N[C@@H](CC(C)C)C(=O)N3C[C@H](O)C[C@H]3C(=O)N(C)[C@@H](CC(C)C)C(=O)N[C@@H](CC(=O)O)C(=O)N[C@@H](CCCNC(=N)N)C(=O)N[C@H](C(N)=O)[C@@H](C)CC)C2=O)C1 (stereo partly drawn) [JAL-1765-2, (AR-314-87)-leu-Leu-Hyp-Nml-Asp-Arg-Ile-NH2] (HELM PEPTIDE1{[CCCCCCCC(=O)[*:2]].[O=C1N(C(Cc2ccccc2)C(=O)[*:2])CCC12CCCN([*:1])C2].[dL].L.[Hyp].[meL].D.R.I.[am]}$$$$V2.0) |  |
